Results published in publication PMC5357725, “Global update on the susceptibility of human influenza viruses to neuraminidase inhibitors, 2014–2015” (Antiviral Research, 2016).

What was measured:
[1] = tested on: B/Victoria-lineage neuraminidase (NA); format: biochemical, influenza B/Victoria-lineage virus
[2] = tested on: B/Yamagata-lineage neuraminidase (NA); format: biochemical, influenza B/Yamagata-lineage virus

SMILES | inhibition class (NI, RI, HRI) [1] | inhibition class (NI, RI, HRI) [2]
[H]/N=C(\N)N[C@H]1C=C(C(=O)O)O[C@@H]([C@H](OC)[C@H](O)CO)[C@@H]1NC(C)=O [Laninamivir, laninamivir] | NI (key: NI: B viruses <5-fold; RI: B viruses 5- to 50-fold; HRI: B viruses >50-fold) | NI (key: NI: B viruses <5-fold; RI: B viruses 5- to 50-fold; HRI: B viruses >50-fold)
CC(=O)N[C@H]1[C@H]([C@H](O)[C@H](O)CO)OC(C(=O)O)=C[C@@H]1N=C(N)N [Zanamivir, zanamivir] | NI (key: NI: B viruses <5-fold; RI: B viruses 5- to 50-fold; HRI: B viruses >50-fold) | –
